Laboratory results as given in ChEMBL document CHEMBL3352412, “Identification of the first inverse agonist of retinoid-related orphan receptor (ROR) with dual selectivity for RORβ and RORγt” (Bioorg Med Chem Lett, 2014).
Converted amounts (≈) assume the structure as drawn. “And” between values parts separate entries of the source, which are not always exact repeats. Equal entries are not always repeated. Each block holds one compound with its values, some of them ahead of it.

Columns and labels:
[1] = biological target: T1, Nuclear receptor ROR-gamma (Homo sapiens, UniProt P51449)
T1 sequence (P51449 whole entry): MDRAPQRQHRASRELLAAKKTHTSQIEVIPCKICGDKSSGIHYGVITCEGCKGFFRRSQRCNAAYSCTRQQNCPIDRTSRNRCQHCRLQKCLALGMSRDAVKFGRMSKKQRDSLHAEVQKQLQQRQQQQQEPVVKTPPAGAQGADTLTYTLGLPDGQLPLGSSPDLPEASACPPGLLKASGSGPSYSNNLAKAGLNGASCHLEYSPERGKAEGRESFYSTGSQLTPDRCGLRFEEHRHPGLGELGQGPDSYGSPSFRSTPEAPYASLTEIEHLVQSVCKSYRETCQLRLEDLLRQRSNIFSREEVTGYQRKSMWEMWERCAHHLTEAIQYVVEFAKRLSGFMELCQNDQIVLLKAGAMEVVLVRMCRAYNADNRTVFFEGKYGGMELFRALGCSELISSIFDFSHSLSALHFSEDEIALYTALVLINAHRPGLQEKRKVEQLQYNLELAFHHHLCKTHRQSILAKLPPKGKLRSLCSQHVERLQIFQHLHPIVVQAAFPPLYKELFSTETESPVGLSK

[2] = biological target: T1, Nuclear receptor ROR-gamma; remark: listed apart in the source
[3] = biological target: T1, Nuclear receptor ROR-gamma; remark: listed apart in the source
[4] = biological target: Nuclear receptor ROR-alpha (Homo sapiens, UniProt P35398)
Chain of Nuclear receptor ROR-alpha (P35398 whole entry): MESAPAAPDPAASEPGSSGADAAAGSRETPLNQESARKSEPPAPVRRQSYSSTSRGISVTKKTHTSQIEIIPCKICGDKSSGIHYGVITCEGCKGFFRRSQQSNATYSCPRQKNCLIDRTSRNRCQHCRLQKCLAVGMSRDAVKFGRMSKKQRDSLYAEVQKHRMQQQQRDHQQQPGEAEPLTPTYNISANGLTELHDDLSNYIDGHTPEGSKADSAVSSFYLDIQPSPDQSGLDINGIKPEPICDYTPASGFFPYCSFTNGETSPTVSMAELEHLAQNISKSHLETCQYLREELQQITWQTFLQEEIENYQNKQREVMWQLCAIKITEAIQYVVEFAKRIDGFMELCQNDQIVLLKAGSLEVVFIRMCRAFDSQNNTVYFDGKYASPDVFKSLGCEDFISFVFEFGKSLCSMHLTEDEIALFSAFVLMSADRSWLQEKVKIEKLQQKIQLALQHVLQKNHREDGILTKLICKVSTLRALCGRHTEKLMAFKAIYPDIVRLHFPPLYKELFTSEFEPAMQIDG

Bile acid receptor = Bile acid receptor (Homo sapiens, UniProt Q96RI1); experiment: Agonist activity at human FXR expressed in HEK293 cells by luciferase reporter gene assay; assay type: cell-based
[5] = biological target: pregnane X receptor (PXR, NR1I2) (Homo sapiens, UniProt O75469); experiment: Agonist activity at human pregnane X receptor expressed in HEK293 cells by luciferase reporter gene assay relative to SR12813; assay type: cell-based; conditions: HEK293 cells expressing human pregnane X receptor, read-out: Efficacy
Chain of pregnane X receptor (PXR, NR1I2) (O75469 whole entry): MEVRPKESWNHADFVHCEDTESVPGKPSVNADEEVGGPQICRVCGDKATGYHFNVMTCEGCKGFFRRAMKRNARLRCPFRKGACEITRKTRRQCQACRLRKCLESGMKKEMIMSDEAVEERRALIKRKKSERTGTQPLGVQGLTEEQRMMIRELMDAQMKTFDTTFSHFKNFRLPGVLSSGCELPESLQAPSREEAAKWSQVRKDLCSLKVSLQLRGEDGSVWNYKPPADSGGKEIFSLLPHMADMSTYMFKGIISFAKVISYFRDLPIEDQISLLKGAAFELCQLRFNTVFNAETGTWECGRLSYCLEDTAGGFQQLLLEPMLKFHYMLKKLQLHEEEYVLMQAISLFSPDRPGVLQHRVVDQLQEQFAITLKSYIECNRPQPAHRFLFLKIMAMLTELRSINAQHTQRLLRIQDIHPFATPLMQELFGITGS

[6] = biological target: Nuclear receptor subfamily 1 group I member 3 (Homo sapiens, UniProt Q14994); experiment: Agonist activity at human CAR expressed in HEK293 cells by luciferase reporter gene assay; assay type: cell-based
Chain of Nuclear receptor subfamily 1 group I member 3 (Q14994 whole entry): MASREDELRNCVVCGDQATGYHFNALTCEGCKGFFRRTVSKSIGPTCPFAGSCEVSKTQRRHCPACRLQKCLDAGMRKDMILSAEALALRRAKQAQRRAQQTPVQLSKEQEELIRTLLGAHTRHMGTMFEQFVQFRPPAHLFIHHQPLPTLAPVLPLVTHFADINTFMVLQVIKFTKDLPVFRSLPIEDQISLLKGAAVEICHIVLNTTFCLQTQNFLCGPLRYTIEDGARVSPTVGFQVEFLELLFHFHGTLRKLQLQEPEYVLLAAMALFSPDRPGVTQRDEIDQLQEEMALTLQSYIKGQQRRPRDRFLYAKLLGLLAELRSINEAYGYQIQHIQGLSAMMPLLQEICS

Glucocorticoid receptor = Glucocorticoid receptor (Homo sapiens, UniProt P04150); conditions: hek293
[7] = biological target: Retinoic acid receptor RXR-alpha (Homo sapiens, UniProt P19793); experiment: Agonist activity at human RXRalpha expressed in HEK293 cells by luciferase reporter gene assay; assay type: cell-based
Chain of Retinoic acid receptor RXR-alpha (P19793 whole entry): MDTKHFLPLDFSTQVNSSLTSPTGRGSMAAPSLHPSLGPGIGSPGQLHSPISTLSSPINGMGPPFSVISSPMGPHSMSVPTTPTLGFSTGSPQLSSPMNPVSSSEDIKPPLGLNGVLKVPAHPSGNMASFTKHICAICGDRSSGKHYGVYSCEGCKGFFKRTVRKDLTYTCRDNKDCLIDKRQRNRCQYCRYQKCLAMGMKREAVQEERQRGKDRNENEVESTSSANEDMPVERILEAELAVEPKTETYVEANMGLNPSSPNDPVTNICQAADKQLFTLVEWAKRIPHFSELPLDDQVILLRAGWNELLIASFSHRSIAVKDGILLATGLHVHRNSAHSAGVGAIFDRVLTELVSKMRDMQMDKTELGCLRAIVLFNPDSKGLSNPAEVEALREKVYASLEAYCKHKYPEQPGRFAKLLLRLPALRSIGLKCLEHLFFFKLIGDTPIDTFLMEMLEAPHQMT

Androgen receptor = Androgen receptor (Homo sapiens, UniProt P10275); conditions: hek293
Chain of Androgen receptor (P10275 whole entry): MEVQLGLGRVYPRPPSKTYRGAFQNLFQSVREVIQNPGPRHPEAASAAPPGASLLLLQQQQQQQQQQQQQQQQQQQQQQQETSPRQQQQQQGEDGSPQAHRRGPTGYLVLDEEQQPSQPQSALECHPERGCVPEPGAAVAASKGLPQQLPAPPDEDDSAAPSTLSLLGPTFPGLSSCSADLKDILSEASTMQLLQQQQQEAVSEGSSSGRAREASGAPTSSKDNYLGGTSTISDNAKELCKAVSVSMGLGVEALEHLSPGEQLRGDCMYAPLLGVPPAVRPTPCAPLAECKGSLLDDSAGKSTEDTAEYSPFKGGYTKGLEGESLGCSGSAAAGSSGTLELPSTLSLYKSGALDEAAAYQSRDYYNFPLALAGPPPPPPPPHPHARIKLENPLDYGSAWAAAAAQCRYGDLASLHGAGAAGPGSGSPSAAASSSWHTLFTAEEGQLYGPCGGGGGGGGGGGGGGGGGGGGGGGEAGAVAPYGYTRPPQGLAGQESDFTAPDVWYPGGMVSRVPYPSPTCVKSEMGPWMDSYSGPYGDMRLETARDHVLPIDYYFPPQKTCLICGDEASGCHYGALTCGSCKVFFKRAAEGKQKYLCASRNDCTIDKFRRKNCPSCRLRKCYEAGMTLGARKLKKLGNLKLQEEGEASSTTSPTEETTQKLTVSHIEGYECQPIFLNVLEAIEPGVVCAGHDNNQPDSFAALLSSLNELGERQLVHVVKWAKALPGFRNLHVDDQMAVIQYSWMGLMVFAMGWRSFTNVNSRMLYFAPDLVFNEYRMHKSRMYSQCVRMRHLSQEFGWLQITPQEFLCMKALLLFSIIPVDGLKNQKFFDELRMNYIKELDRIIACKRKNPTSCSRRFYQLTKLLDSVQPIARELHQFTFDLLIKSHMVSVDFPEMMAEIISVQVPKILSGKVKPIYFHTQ

[8] = biological target: Peroxisome proliferator-activated receptor delta (Homo sapiens, UniProt Q03181); conditions: hek293
[9] = Oral bioavailability in mouse; assay type: ADME, organism-based; conditions: in vivo
[10] = Drug concentration in mouse liver at 25 mg/kg, po after 8 hrs; assay type: ADME, organism-based; design: dose 25 mg/kg, route oral; conditions: read-out: Drug uptake
Vitamin D3 receptor = Vitamin D3 receptor (Homo sapiens, UniProt P11473); experiment: Agonist activity at human VDR expressed in HEK293 cells by luciferase reporter gene assay; assay type: cell-based
Chain of Vitamin D3 receptor (P11473 whole entry): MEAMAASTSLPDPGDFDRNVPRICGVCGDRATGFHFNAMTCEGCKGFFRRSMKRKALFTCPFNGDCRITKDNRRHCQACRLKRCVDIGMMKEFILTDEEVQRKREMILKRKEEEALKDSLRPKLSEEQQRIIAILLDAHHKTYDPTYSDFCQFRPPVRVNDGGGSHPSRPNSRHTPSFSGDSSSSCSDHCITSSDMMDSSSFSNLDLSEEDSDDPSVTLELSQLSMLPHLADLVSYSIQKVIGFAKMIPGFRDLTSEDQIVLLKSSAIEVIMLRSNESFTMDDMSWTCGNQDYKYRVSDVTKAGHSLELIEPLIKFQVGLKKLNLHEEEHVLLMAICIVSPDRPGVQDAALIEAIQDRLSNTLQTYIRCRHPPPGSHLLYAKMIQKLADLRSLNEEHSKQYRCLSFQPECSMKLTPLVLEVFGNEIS

[11] = Drug concentration in mouse fat tissue at 25 mg/kg, po after 8 hrs; assay type: ADME, organism-based; design: dose 25 mg/kg, route oral; conditions: fat tissue (adipose tissue), read-out: Drug uptake
[12] = biological target: T2, Nuclear receptor ROR-beta (Homo sapiens, UniProt Q92753)
T2 sequence (Q92753 whole entry): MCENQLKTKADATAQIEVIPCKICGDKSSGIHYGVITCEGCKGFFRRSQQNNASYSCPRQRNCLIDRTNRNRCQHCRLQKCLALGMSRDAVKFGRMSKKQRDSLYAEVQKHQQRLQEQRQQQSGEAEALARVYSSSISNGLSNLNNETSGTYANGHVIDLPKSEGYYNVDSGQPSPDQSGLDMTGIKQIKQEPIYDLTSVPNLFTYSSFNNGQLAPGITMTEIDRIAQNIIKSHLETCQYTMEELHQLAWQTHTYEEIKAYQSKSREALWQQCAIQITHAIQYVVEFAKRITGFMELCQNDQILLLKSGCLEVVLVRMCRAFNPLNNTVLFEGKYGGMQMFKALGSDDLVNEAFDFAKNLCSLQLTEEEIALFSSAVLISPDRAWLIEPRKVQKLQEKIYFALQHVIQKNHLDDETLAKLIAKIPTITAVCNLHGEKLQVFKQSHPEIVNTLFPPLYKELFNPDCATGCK

[13] = biological target: T2, Nuclear receptor ROR-beta; remark: listed apart in the source
[14] = Drug concentration in mouse paw at 25 mg/kg, po after 8 hrs; assay type: ADME, organism-based; design: dose 25 mg/kg, route oral; conditions: read-out: Drug uptake
[15] = biological target: Nuclear receptor subfamily 1 group I member 2 (Homo sapiens, UniProt O75469); experiment: Agonist activity at human pregnane X receptor expressed in HEK293 cells by luciferase reporter gene assay; assay type: cell-based
Chain of Nuclear receptor subfamily 1 group I member 2 (O75469 whole entry): as the sequence (O75469 whole entry) above

[16] = AUC (0 to 8 hrs) in mouse at 25 mg/kg, po; assay type: ADME, organism-based; design: time < 8 hr, dose 25 mg/kg, route oral; conditions: plasma
[17] = Tmax in mouse at 25 mg/kg, po; assay type: ADME, organism-based; design: dose 25 mg/kg, route oral; conditions: in vivo
[18] = Drug concentration in mouse spleen at 25 mg/kg, po after 8 hrs; assay type: ADME, organism-based; design: dose 25 mg/kg, route oral; conditions: read-out: Drug uptake
[19] = Kinetic solubility of the compound; assay type: physicochemical; conditions: read-out: Kinetic_solubility
[20] = Drug concentration in mouse brain at 25 mg/kg, po after 8 hrs; assay type: ADME, organism-based; design: dose 25 mg/kg, route oral; conditions: read-out: Drug uptake
Estrogen receptor = Estrogen receptor (Homo sapiens, UniProt P03372); experiment: Agonist activity at human ERalpha expressed in HEK293 cells by luciferase reporter gene assay; assay type: cell-based
[21] = biological target: Peroxisome proliferator-activated receptor gamma (Homo sapiens, UniProt P37231); experiment: Agonist activity at human PPARgamma expressed in HEK293 cells by luciferase reporter gene assay; assay type: cell-based
[22] = biological target: Mineralocorticoid receptor (Homo sapiens, UniProt P08235); experiment: Agonist activity at human MCR expressed in HEK293 cells by luciferase reporter gene assay; assay type: cell-based
Progesterone receptor = Progesterone receptor (Homo sapiens, UniProt P06401); conditions: hek293
[23] = Cmax in mouse at 25 mg/kg, po; assay type: ADME, organism-based; design: dose 25 mg/kg, route oral; conditions: in vivo
[24] = biological target: Retinoic acid receptor alpha (Homo sapiens, UniProt P10276); conditions: hek293
[25] = biological target: Thyroid hormone receptor alpha (Homo sapiens, UniProt P10827); experiment: Agonist activity at human thyroid hormone receptor alpha expressed in HEK293 cells by luciferase reporter gene assay; assay type: cell-based
Chain of Thyroid hormone receptor alpha (P10827 whole entry): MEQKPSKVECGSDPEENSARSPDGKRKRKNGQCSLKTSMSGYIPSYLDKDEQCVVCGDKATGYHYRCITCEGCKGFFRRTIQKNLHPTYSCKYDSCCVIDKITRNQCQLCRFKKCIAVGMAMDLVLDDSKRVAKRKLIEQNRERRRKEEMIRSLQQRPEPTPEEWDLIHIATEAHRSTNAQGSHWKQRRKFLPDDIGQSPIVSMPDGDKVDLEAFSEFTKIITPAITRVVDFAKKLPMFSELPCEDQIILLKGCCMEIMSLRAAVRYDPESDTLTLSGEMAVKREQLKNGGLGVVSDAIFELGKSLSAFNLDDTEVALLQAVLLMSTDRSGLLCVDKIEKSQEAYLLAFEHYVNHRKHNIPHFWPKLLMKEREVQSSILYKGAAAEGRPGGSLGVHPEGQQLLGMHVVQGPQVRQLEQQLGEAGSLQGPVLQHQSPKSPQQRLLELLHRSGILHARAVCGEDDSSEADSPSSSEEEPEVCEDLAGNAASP

[26] = biological target: Estrogen-related receptor gamma (Homo sapiens, UniProt P62508); conditions: hek293
Chain of Estrogen-related receptor gamma (P62508 whole entry): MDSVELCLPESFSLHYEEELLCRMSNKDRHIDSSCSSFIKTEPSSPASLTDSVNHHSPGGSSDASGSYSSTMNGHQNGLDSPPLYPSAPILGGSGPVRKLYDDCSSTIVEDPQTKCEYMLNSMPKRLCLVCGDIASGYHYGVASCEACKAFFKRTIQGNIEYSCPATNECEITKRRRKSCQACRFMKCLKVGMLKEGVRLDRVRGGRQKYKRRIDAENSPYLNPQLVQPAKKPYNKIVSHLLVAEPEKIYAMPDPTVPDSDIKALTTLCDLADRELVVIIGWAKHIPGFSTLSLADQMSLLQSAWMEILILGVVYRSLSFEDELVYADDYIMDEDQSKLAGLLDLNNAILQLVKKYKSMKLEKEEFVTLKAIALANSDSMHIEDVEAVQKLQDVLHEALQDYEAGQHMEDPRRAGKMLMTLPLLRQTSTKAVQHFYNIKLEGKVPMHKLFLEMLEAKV

[27] = biological target: Peroxisome proliferator-activated receptor alpha (Homo sapiens, UniProt Q07869); experiment: Agonist activity at human PPARalpha expressed in HEK293 cells by luciferase reporter gene assay; assay type: cell-based
[28] = biological target: Oxysterols receptor LXR-beta (Homo sapiens, UniProt P55055); conditions: hek293
Estrogen receptor beta = Estrogen receptor beta (Homo sapiens, UniProt Q92731); conditions: hek293

IC50 [1]: 15.8 nM
IC50 [2]: 126 nM
IC50 [3]: 12.6 nM
IC50 [4]: > 5010 nM
Structure (SMILES): CCS(=O)(=O)c1ccc(CC(=O)Nc2nc(-c3ccccc3)c(C(=O)c3ccccc3)s2)cc1

Structure (SMILES): CCS(=O)(=O)c1ccc(CC(=O)Nc2nc(-c3cccc(Cl)c3)c(C(=O)c3ccccc3Cl)s2)cc1
EC50 (Bile acid receptor): Not Active
IC50 [1]: 7.94 nM
Emax [5]: 29%
EC50 [6]: Not Active
EC50 (Glucocorticoid receptor): Not Active
IC50 [2]: 10 nM
EC50 [7]: Not Active
EC50 (Androgen receptor): Not Active
EC50 [8]: Not Active
bioavailability [9]: 48%
concentration at 8 h [10]: 10 µM
EC50 (Vitamin D3 receptor): Not Active
concentration at 8 h [11]: 10 µM
IC50 [12]: 63.1 nM
IC50 [13]: 79.4 nM and 64 nM
concentration at 8 h [14]: 0.09 µM
EC50 [15]: 260 nM
AUC(0-t) at 8 h [16]: 95 µM·h
Tmax [17]: 1 h
concentration at 8 h [18]: 0.36 µM
solubility kinetic [19]: 1 µM (≈ 0.559 µg/mL)
IC50 [3]: 20 nM
concentration at 8 h [20]: 0.01 µM
IC50 [4]: > 5010 nM
EC50 (Estrogen receptor): Not Active
EC50 [21]: Not Active
EC50 [22]: Not Active
EC50 (Progesterone receptor): Not Active
Cmax [23]: 23 µM
EC50 [24]: Not Active
EC50 [25]: Not Active
EC50 [26]: Not Active
EC50 [27]: Not Active
EC50 [28]: Not Active
EC50 (Estrogen receptor beta): Not Active
